This assay deals with T1, human mAChR M4 (Homo sapiens, UniProt P08173).
T1 construct: expressed in transfected cells
T1 sequence (P08173 1-479): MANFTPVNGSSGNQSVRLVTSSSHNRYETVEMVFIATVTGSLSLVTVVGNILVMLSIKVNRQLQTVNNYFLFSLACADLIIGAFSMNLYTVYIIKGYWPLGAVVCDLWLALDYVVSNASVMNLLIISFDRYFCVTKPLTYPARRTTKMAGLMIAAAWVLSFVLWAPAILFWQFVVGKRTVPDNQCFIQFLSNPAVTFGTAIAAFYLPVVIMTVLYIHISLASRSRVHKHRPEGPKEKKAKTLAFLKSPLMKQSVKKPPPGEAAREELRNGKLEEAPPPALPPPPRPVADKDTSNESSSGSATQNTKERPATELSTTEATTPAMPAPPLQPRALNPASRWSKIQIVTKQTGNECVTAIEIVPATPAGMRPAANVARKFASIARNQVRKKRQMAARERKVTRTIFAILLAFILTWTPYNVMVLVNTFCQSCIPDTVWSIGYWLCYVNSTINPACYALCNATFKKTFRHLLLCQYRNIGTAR
Nature of the assay: mAChR M4 cell-based functional assay (calcium mobilization, CHO-K1 hM4-Gqi5 cells). Particulars: for Emax at 30 µM: CHO-K1, % ACh maximum at 30 μM, human M4; for EC50: positive allosteric modulator activity, increase in the EC20 acetylcholine response, CHO-K1 hM4-Gqi5 cells, read-out: Human M4 EC50. An outline of the steps:
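CHO-K1 cells stably expressing human M4 with chimeric Gqi5, loaded with Fluo-4 AM; compounds given as 11-point 1:3 curves and calcium flux read on FDSS at 1 Hz. Acetylcholine EC20 added at 144 s, EC80 at 230 s; agonist, PAM (EC20 potentiation) and antagonist (EC80 inhibition) EC50/Emax from four-parameter fits.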

In the case of `Cc1nc(Cl)c(C)c(N2CCc3ncc(Nc4c(F)cccc4F)cc3C2)n1` [compound 89, 6-(6-chloro-2,5-dimethyl-pyrimidin-4-yl)-N-(2,6-difluorophenyl)-7,8-dihydro-5H-1,6-naphthyridin-3-amine], the Emax at 30 µM was 80% and the EC50 is 716 nM.

Consider `Cc1cc(C(=O)NCc2ccc(S(C)(=O)=O)cc2)cnc1N1CCc2ncccc2C1` [compound 143, 6-(7,8-dihydro-5H-1,6-naphthyridin-6-yl)-5-methyl-N-[(4-methylsulfonylphenyl)methyl] pyridine-3-carboxamide], for which the Emax at 30 µM stood at 53% and the EC50 was 5830 nM.

As for `Cc1c(C#N)nnc(N2CCc3ncc(-c4ccnc(Cl)c4F)cc3C2)c1C` [compound 73, 6-[3-(2-chloro-3-fluoro-4-pyridyl)-7,8-dihydro-5H-1,6-naphthyridin-6-yl]-4,5-dimethyl-pyridazine-3-carbonitrile], the Emax at 30 µM came out at 50% and the EC50 amounted to 940 nM.

For `Cc1cnccc1CNC(=O)c1cnc(N2CCc3ncc(C(F)(F)F)cc3C2)c(C)c1` [Example 445, 5-methyl-N-((3-methylpyridin-4-yl)methyl)-6-(3-(trifluoromethyl)-7,8-dihydro-1,6-naphthyridin-6(5H)-yl)nicotinamide], the Emax at 30 µM worked out at 100% and the half-maximal effective concentration (EC50) was 170 nM.

Take `Cc1ccc(F)c(Nc2cnc3c(c2)CN(c2nnc(C#N)c(C)c2C)CC3)c1` [Example 37]: the Emax at 30 µM came to 57% and the EC50 is 438 nM.

`Cc1nc(Cl)c(C)c(N2Cc3cc(C(F)(F)F)cnc3C(C)(C)C2)n1` [compound 257, 6-(6-chloro-2,5-dimethylpyrimidin-4-yl)-8,8-dimethyl-3-(trifluoromethyl)-5,6,7,8-tetrahydro-1,6-naphthyridine]: the Emax at 30 µM came out at 39% and the EC50 came to 8310 nM.

Consider `Cc1cc(C#N)nnc1N1CCc2ncc(Oc3ccc(F)cc3F)cc2C1` [Example 355, 6-(3-(2,4-difluorophenoxy)-7,8-dihydro-1,6-naphthyridin-6(5H)-yl)-5-methylpyridazine-3-carbonitrile], for which the Emax at 30 µM turned out to be 81% and the EC50 came to 297 nM.

For the compound `Cc1cc(C#N)cnc1N1CCc2ncc(N3CCCn4nc(C(C)(C)C)cc43)cc2C1` [Example 414, 6-(3-(2-(tert-butyl)-6,7-dihydropyrazolo[1,5-a]pyrimidin-4(5H)-yl)-7,8-dihydro-1,6-naphthyridin-6(5H)-yl)-5-methylnicotinonitrile], the Emax at 30 µM was determined as 65% and the EC50 amounted to 739 nM.

Take `Cc1nn(C)cc1-c1cnc2c(c1)CN(c1nc(NC3CCOC3)nc(C)c1C)CC2` (stereo not drawn) [compound 273, 4-(3-(1,3-dimethyl-1H-pyrazol-4-yl)-7,8-dihydro-1,6-naphthyridin-6(5H)-yl)-5,6-dimethyl-N-(tetrahydrofuran-3-yl)pyrimidin-2-amine]: the maximal response (Emax) at 30 µM was 92% and the EC50 was 639 nM.

For `Cc1ccc(F)c(Nc2cnc3c(c2)CN(c2ncc(C#N)cc2C)CC3)c1` [compound 115, 6-[3-(2-fluoro-5-methyl-anilino)-7,8-dihydro-5H-1,6-naphthyridin-6-yl]-5-methyl-pyridine-3-carbonitrile], the Emax at 30 µM was found to be 92% and the EC50 is 995 nM.

Take `Cc1ncc(-c2cnc3c(c2)CN(c2ncc(C#N)cc2C)CC3)s1` [compound 185, 5-methyl-6-[3-(2-methylthiazol-5-yl)-7,8-dihydro-5H-1,6-naphthyridin-6-yl]pyridine-3-carbonitrile]: the Emax at 30 µM amounted to 101% and the EC50 came out at 211 nM.

On to `CNC(=O)c1cnc(N2CCc3ncccc3C2)c(C)c1` [compound 57, 6-(7,8-dihydro-5H-1,6-naphthyridin-6-yl)-N,5-dimethyl-pyridine-3-carboxamide], for which the EC50 is not below 10000 nM. For the same compound, the Emax (CHO-K1) worked out at 63%.

In the case of `Cc1c(C#N)nnc(N2CCc3ncc(C(F)F)cc3C2)c1C` [Example 308, 6-(3-(difluoromethyl)-7,8-dihydro-1,6-naphthyridin-6(5H)-yl)-4,5-dimethylpyridazine-3-carbonitrile], the Emax at 30 µM came out at 94% and the EC50 came out at 405 nM.

As to `Cc1ccc(Nc2cnc3c(c2)CN(c2ncc(C#N)cc2C)CC3)c(F)n1` [compound 132, 6-[3-[(2-fluoro-6-methyl-3-pyridyl)amino]-7,8-dihydro-5H-1,6-naphthyridin-6-yl]-5-methyl-pyridine-3-carbonitrile], the Emax at 30 µM turned out to be 96% and the EC50 stood at 234 nM.

Consider `Cc1cc(C#N)nnc1N1CCc2ncc(N3CCCn4nc(C5CC5)cc43)cc2C1` [Example 419, 6-(3-(2-cyclopropyl-6,7-dihydropyrazolo[1,5-a]pyrimidin-4(5H)-yl)-7,8-dihydro-1,6-naphthyridin-6(5H)-yl)-5-methylpyridazine-3-carbonitrile], for which the maximal effect (Emax) at 30 µM stood at 87% and the EC50 came out at 284 nM.

With `Cc1cc(Nc2cnc3c(c2)CN(c2nnc(C#N)c(C)c2C)CC3)c(F)cn1` [Example 614, 6-(3-((5-fluoro-2-methylpyridin-4-yl)amino)-7,8-dihydro-1,6-naphthyridin-6(5H)-yl)-4,5-dimethylpyridazine-3-carbonitrile], the Emax at 30 µM worked out at 92% and the EC50 worked out at 12 nM.

`Cc1cc(C(=O)N2CCOCC2)nnc1N1CCc2ncc(N3CCCn4nccc43)cc2C1` [Example 515, (6-(3-(6,7-dihydropyrazolo[1,5-a]pyrimidin-4(5H)-yl)-7,8-dihydro-1,6-naphthyridin-6(5H)-yl)-5-methylpyridazin-3-yl)(morpholino)methanone]: the Emax at 30 µM is 107% and the EC50 came out at 197 nM.

Regarding `Cc1nc(Cl)c(C)c(N2CCc3ncc(Nc4ccnn4C)cc3C2)n1` [compound 212, 6-(6-chloro-2,5-dimethylpyrimidin-4-yl)-N-(1-methyl-1H-pyrazol-5-yl)-5,6,7,8-tetrahydro-1,6-naphthyridin-3-amine], the Emax at 30 µM turned out to be 98% and the EC50 worked out at 65 nM.

For `Cc1cc(C(=O)N2CC3(C2)CC(F)(F)C3)nnc1N1CCc2ncc(N3CCO[C@H](C)C3)cc2C1` [Example 574, (R)-(6,6-difluoro-2-azaspiro[3.3]heptan-2-yl)(5-methyl-6-(3-(2-methylmorpholino)-7,8-dihydro-1,6-naphthyridin-6(5H)-yl)pyridazin-3-yl)methanone], the Emax at 30 µM worked out at 81% and the EC50 came out at 193 nM.

On to `Cc1nc(C)c(C)c(N2CCc3ncc(-c4ccc(N5CCC5)nc4)cc3C2)n1` [compound 234, 3-(6-(azetidin-1-yl)pyridin-3-yl)-6-(2,5,6-trimethylpyrimidin-4-yl)-5,6,7,8-tetrahydro-1,6-naphthyridine], for which the Emax at 30 µM was 63% and the EC50 stood at 354 nM.

`Cc1c(C#N)nnc(N2CCc3ncc(Nc4nc(Cl)ncc4F)cc3C2)c1C` [compound 81, 6-[3-[(2-chloro-5-fluoro-pyrimidin-4-yl)amino]-7,8-dihydro-5H-1,6-naphthyridin-6-yl]-4,5-dimethyl-pyridazine-3-carbonitrile]: the Emax at 30 µM stood at 78% and the EC50 was 539 nM.

`Cc1cc(F)ncc1-c1cnc2c(c1)CN(c1nnc(C#N)cc1C)CC2` [Example 593, 6-(3-(6-fluoro-4-methylpyridin-3-yl)-7,8-dihydro-1,6-naphthyridin-6(5H)-yl)-5-methylpyridazine-3-carbonitrile]: the Emax at 30 µM was determined as 70% and the EC50 was determined as 876 nM.

`Cc1cc(C#N)nnc1N1CCc2ncc(CC(F)(F)F)cc2C1` [Example 422, 5-methyl-6-(3-(2,2,2-trifluoroethyl)-7,8-dihydro-1,6-naphthyridin-6(5H)-yl)pyridazine-3-carbonitrile]: the Emax at 30 µM amounted to 94% and the EC50 came out at 523 nM.

As for `Cc1cc(C(=O)NCC2CCOCC2)cnc1N1CCc2ncc(-c3cn(C)nc3C)cc2C1` [Example 459, 6-(3-(1,3-dimethyl-1H-pyrazol-4-yl)-7,8-dihydro-1,6-naphthyridin-6(5H)-yl)-5-methyl-N-((tetrahydro-2H-pyran-4-yl)methyl)nicotinamide], the maximum response (Emax) at 30 µM was 71% and the EC50 amounted to 1190 nM.

Regarding `Cc1c(C#N)nnc(N2CCc3ncc(-c4cnn(CCN(C)C)c4)cc3C2)c1C` [Example 324, 6-(3-(1-(2-(dimethylamino)ethyl)-1H-pyrazol-4-yl)-7,8-dihydro-1,6-naphthyridin-6(5H)-yl)-4,5-dimethylpyridazine-3-carbonitrile], the Emax at 30 µM was 70% and the EC50 came out at 1070 nM.

For `Cc1ccc(-c2cnc3c(c2)CN(c2nnc(C#N)c(C)c2C)CC3)cn1` [Example 298, 4,5-dimethyl-6-(3-(6-methylpyridin-3-yl)-7,8-dihydro-1,6-naphthyridin-6(5H)-yl)pyridazine-3-carbonitrile], the Emax at 30 µM was 93% and the EC50 stood at 530 nM.

Regarding `Cc1c(C#N)nnc(N2CCc3ncc(-c4ccc(Cl)nc4)cc3C2)c1C` [compound 56, 6-[3-(6-chloro-3-pyridyl)-7,8-dihydro-5H-1,6-naphthyridin-6-yl]-4,5-dimethyl-pyridazine-3-carbonitrile], the Emax at 30 µM amounted to 53% and the EC50 is 364 nM.

A word on the Emax: it is the maximal effect, on the per cent scale that the assay sets. As usually defined, the EC50 is the concentration at which the effect is half-maximal.

The values are drawn from patent US20250230155A1 (Vanderbilt University, priority 2021, published 2025).
